Measurements as given in patent US8901160B2, “Heparanase activity inhibitor” (Shiseido Company, Ltd., priority 2009, dated 2014).

Target: T1, heparanase (Homo sapiens, UniProt Q9Y251)
T1 construct: the supernatant was recovered as cell extract; endogenous in cells; host or cells: A431 cells (human epithelial carcinoma), Triton X-100 lysate supernatant
T1 sequence (Q9Y251 158-543 limits assumed): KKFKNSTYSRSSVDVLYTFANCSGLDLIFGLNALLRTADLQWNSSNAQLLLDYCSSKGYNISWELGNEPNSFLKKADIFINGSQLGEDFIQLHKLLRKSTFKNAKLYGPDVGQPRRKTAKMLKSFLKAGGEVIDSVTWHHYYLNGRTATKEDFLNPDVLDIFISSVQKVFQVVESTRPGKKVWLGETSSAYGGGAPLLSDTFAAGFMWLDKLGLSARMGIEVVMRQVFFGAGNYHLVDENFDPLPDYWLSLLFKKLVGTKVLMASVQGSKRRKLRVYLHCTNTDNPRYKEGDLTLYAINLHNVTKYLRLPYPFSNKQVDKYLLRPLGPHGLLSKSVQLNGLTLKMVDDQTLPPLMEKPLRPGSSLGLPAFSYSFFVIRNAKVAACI
T1 sequence (Q9Y251 36-109 limits assumed): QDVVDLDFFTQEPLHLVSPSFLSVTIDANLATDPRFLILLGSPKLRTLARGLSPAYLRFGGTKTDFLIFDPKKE
Test: Evaluation based on heparanase activity inhibition rate (A431 cell extract, biotinylated heparan sulfate-immobilized plate)
Type: biochemical
Settings: 37° C., 2 hours
Description: In the primary evaluation using heparanase activity as the index, as described in detail in the examples which follow, biotinylated heparan sulfate was immobilized in 96 wells, after which heparanase was allowed to act in the presence of a drug, and the amount of reduction in biotinylated heparan sulfate was used to evaluate the heparanase activity by the reaction with peroxidase-labeled avidin and coloration.
A431 cells (human epithelial carcinoma cells) were cultured in 10% serum-containing DMEM (Dulbecco's modified Eagle medium). The cultured cells were solubilized in lysis buffer (50 mM Tris, 0.5% TritonX-100, 0.15 M sodium chloride, pH 4.5) and collected with a scraper, and then pipetted and allowed to stand on ice for 30 minutes. This was followed by centrifugation at 10,000 rpm for 10 minutes to remove the insoluble portion, and the supernatant was recovered as cell extract. The amount of protein in the cell extract was measured with a BCA protein assay kit (BCA Protein Assay Kit, PIERCE, CA46141).
The A431 cell extract was then diluted to 500 μg/mL with assay buffer (50 mM HEPES, 50 mM sodium acetate, 150 mM sodium chloride, 9 mM calcium chloride, 0.1% BSA). […] After further rinsing 3 times with PBS-T, TMB reagent (BIO-RAD, 172-1066) was added at 100 μL/well and reacted therewith, the reaction was terminated with 1N sulfuric acid, and the absorbance at 475 nm (OD475) was measured.
Also, DMSO was added to a serial diluent prepared with the aforementioned A431 cell extract assay buffer (cell extract concentrations: 500 μg/mL, 50 μg/mL, 5 μg/mL, 0.5 μg/mL), to a final concentration of 5% without addition of the test compound, to obtain a mixture (solution for calibration curve). The solution for the calibration curve was subjected to the treatment of the same procedure described above, from seeding of the biotinylated heparan sulfate-immobilized plate, and the OD475 was measured. […]

## O=C1NCCN1CCO [1-(2-Hydroxyethyl)-2-imidazolidinone, 1-(2-hydroxyethyl)-2-imidazolidinone]
Addition concentration 0.05%
  Heparanase inhibition rate: 99.40%

## O=C1CCCN1CCO [1-(2-Hydroxyethyl)-2-pyrrolidone, 1-(2-hydroxyethyl)-2-pyrrolidone]
Addition concentration 0.05%
  Heparanase inhibition rate: 99.00%

## O=C1NCCN1 [2-Imidazolidinone, 2-imidazolidinone]
Addition concentration 0.5%
  Heparanase inhibition rate: 99.95%
